Tests used:
[1] = tested on: NCIH322M; experiment: NCI SRB cytotoxicity, non-small cell lung NCIH322M; format: cell-based; settings: Homo sapiens, NCI-H322M, 48 h exposure
Procedure: (§1) The pyrazolochalcones (7e, 8e, 10e, 11e, 12e, 13e and 8f) have been tested against fifty nine human tumor cell lines derived from nine cancer types (leukemia, non-small cell lung cancer, colon cancer, CNS cancer, melanoma, ovarian cancer, renal cancer, prostate cancer and breast cancer) as per the NCI protocol. For each compound, dose response curves for individual cell lines have been measured at a minimum of five concentrations at 10 fold dilutions. A protocol of 48 h continuous drug exposure has been used, and a sulforhodamine B (SRB) protein assay has been used to estimate cell viability or growth. The concentration for 50% cell growth inhibition (GI50), 50% cell death (LC50, 50% growth) and total cell growth inhibition (TGI, 0% growth) values were tabulated (Table-1). DMSO was used as control to calculate the values of GI50, LC50 and TGI. The compounds 7e, 8e, 10e, 11e, 12e, 13e and 8f has been evaluated for their in vitro cytotoxicity in […] cell lines from nine human cancer types of leukemia (K-562, SR), non-small cell lung (Hop-62, NCI-H226, NCI-H522), colon (HCT-116, HCT-15, HCC-2998), CNS (SF-539), melanoma (SK-MEL-5, UACC-62, M14), ovarian (IGROV1), renal (A498), prostate (PC3) and breast (BT-549, MDA-MB-435, HS578T) origin. The results are expressed as percent of cell growth determined relative to that of untreated control cells (Table 2).

[2] = tested on: Melanoma; experiment: NCI SRB cytotoxicity, melanoma panel average; format: cell-based, human; settings: average of cell lines
Procedure: as §1
(§2) Each cancer type represents the average of six to eight different cancer cell lines.

[3] = tested on: NCI-H460; experiment: NCI SRB cytotoxicity, non-small cell lung NCI-H460; format: cell-based; settings: Homo sapiens, 48 h exposure
Procedure: as §1

[4] = tested on: RXF 393; experiment: NCI SRB cytotoxicity, renal RXF 393; format: cell-based; settings: Homo sapiens, 48 h exposure
Procedure: as §1

[5] = tested on: A549/ATCC; experiment: NCI SRB cytotoxicity, non-small cell lung A549/ATCC; format: cell-based; settings: Homo sapiens, 48 h exposure
Procedure: as §1

[6] = tested on: DU-145; experiment: NCI SRB cytotoxicity, prostate DU-145; format: cell-based; settings: Homo sapiens, 48 h exposure
Procedure: as §1

[7] = tested on: SNB-19; experiment: NCI SRB cytotoxicity, CNS SNB-19; format: cell-based; settings: Homo sapiens, 48 h exposure
Procedure: as §1

[8] = tested on: SF-539; experiment: NCI SRB cytotoxicity, CNS SF-539; format: cell-based; settings: Homo sapiens, 48 h exposure
Procedure: as §1

[9] = tested on: U251; experiment: NCI SRB cytotoxicity, CNS U251; format: cell-based; settings: Homo sapiens, U-251, 48 h exposure
Procedure: as §1

[10] = tested on: HOP92; experiment: NCI SRB cytotoxicity, non-small cell lung HOP92; format: cell-based; settings: Homo sapiens, HOP-92, 48 h exposure
Procedure: as §1

[11] = tested on: CNS; experiment: NCI SRB cytotoxicity, CNS panel average; format: cell-based, human; settings: average of cell lines
Procedure: as §1, §2

[12] = tested on: Ovarian; experiment: NCI SRB cytotoxicity, ovarian panel average; format: cell-based, human; settings: average of cell lines
Procedure: as §1, §2

[13] = tested on: UACC-62; experiment: NCI SRB cytotoxicity, melanoma UACC-62; format: cell-based; settings: Homo sapiens, 48 h exposure
Procedure: as §1

[14] = tested on: MCF7; experiment: NCI SRB cytotoxicity, breast MCF7; format: cell-based; settings: Homo sapiens, 48 h exposure
Procedure: as §1

[15] = tested on: A498; experiment: NCI SRB cytotoxicity, renal A498; format: cell-based; settings: Homo sapiens, 48 h exposure
Procedure: as §1

[16] = tested on: ACHN; experiment: NCI SRB cytotoxicity, renal ACHN; format: cell-based; settings: Homo sapiens, 48 h exposure
Procedure: as §1

[17] = tested on: TK-10; experiment: NCI SRB cytotoxicity, renal TK-10; format: cell-based; settings: Homo sapiens, 48 h exposure
Procedure: as §1

[18] = tested on: MOLT-4; experiment: NCI SRB cytotoxicity, leukemia MOLT-4; format: cell-based; settings: Homo sapiens, 48 h exposure
Procedure: as §1

[19] = tested on: SNB-75; experiment: NCI SRB cytotoxicity, CNS SNB-75; format: cell-based; settings: Homo sapiens, 48 h exposure
Procedure: as §1

[20] = tested on: Non-small cell lung; experiment: NCI SRB cytotoxicity, non-small cell lung panel average; format: cell-based, human; settings: average of cell lines
Procedure: as §1, §2

[21] = tested on: SF-268; experiment: NCI SRB cytotoxicity, CNS SF-268; format: cell-based; settings: Homo sapiens, 48 h exposure
Procedure: as §1

[22] = tested on: CCRF-CEM; experiment: NCI SRB cytotoxicity, leukemia CCRF-CEM; format: cell-based; settings: Homo sapiens, 48 h exposure
Procedure: as §1

[23] = tested on: SK-MEL-28; experiment: NCI SRB cytotoxicity, melanoma SK-MEL-28; format: cell-based; settings: Homo sapiens, 48 h exposure
Procedure: as §1

[24] = tested on: SF-295; experiment: NCI SRB cytotoxicity, CNS SF-295; format: cell-based; settings: Homo sapiens, 48 h exposure
Procedure: as §1

[25] = tested on: HCC-2998; experiment: NCI SRB cytotoxicity, colon HCC-2998; format: cell-based; settings: Homo sapiens, 48 h exposure
Procedure: as §1

[26] = tested on: UO-31; experiment: NCI SRB cytotoxicity, renal UO-31; format: cell-based; settings: Homo sapiens, 48 h exposure
Procedure: as §1

[27] = tested on: LOX IMVI; experiment: NCI SRB cytotoxicity, melanoma LOX IMVI; format: cell-based; settings: Homo sapiens, 48 h exposure
Procedure: as §1

[28] = tested on: Colon; experiment: NCI SRB cytotoxicity, colon panel average; format: cell-based, human; settings: average of cell lines
Procedure: as §1, §2

[29] = tested on: SR; experiment: NCI SRB cytotoxicity, leukemia SR; format: cell-based; settings: Homo sapiens, 48 h exposure
Procedure: as §1

[30] = tested on: Leukemia; experiment: NCI SRB cytotoxicity, leukemia panel average; format: cell-based, human; settings: average of cell lines
Procedure: as §1, §2

[31] = tested on: SK-OV-3; experiment: NCI SRB cytotoxicity, ovarian SK-OV-3; format: cell-based; settings: Homo sapiens, 48 h exposure
Procedure: as §1

[32] = tested on: T-47D; experiment: NCI SRB cytotoxicity, breast T-47D; format: cell-based; settings: Homo sapiens, T47D, 48 h exposure
Procedure: as §1

[33] = tested on: PC-3; experiment: NCI SRB cytotoxicity, prostate PC-3; format: cell-based; settings: Homo sapiens, 48 h exposure
Procedure: as §1

[34] = Homo sapiens, read-out: Log10 LC50 (concentration in mol/L causing 50% cell death) (converted)

With `COc1ccc(C(=O)/C=C/c2cc(-c3ccc4c(c3)OCO4)n[nH]2)cc1OC` [8f, (E)-3-(3-(benzo[d][1,3]dioxol-5-yl)-1H-pyrazol-5-yl)-1-(3,4-dimethoxyphenyl)prop-2-en-1-one] the GI50 [1] was 2.48 µM, the LC50 [2, 34] was 0.00105 mol/L and the “Log10 GI50 (concentration in mol/L causing 50% growth inhibition)” value [2] was −5.79 mol/L. The “Log10 TGI (concentration in mol/L causing total growth inhibition)” value [2] was −4.80 mol/L, the GI50 [3] was 1.81 µM and the GI50 [4] was 2.42 µM. For the same molecule, the GI50 [5] was 2.7 µM, the GI50 [6] was 1.8 µM and the GI50 [7] was 3.2 µM. For the same molecule, the GI50 [8] was 1.91 µM, the GI50 [9] was 1.58 µM and the GI50 [10] was 2.16 µM. For the same molecule, the LC50 [11, 34] was 0.000155 mol/L, the “Log10 GI50 (concentration in mol/L causing 50% growth inhibition)” value [11] was −5.65 mol/L and the “Log10 TGI (concentration in mol/L causing total growth inhibition (0% growth))” value [11] was −5.14 mol/L. For the same molecule, the CC50 [12, 34] was 52.5 µM, the “Log10 GI50 (concentration in mol/L causing 50% growth inhibition)” value [12] was −5.58 mol/L and the “Log10 TGI (concentration in mol/L causing total growth inhibition (0% growth))” value [12] was −4.87 mol/L. It also gave a GI50 [13] of 4.1 µM, a GI50 [14] of 3.2 µM and a GI50 [15] of 1.55 µM. For the same molecule, the GI50 [16] was 3.49 µM, the GI50 [17] was 2.8 µM and the GI50 [18] was 3 µM. For the same molecule, the GI50 [19] was 1.98 µM, the LC50 [20, 34] was 0.000513 mol/L and the “Log10 GI50 (concentration in mol/L causing 50% growth inhibition)” value [20] was −5.6 mol/L. For the same molecule, the “Log10 TGI (concentration in mol/L causing total growth inhibition (0% growth))” value [20] was −5.08 mol/L, the GI50 [21] was 2.53 µM and the GI50 [22] was 2.52 µM. The GI50 [23] was 5.76 µM, the GI50 [24] was 2.51 µM and the GI50 [25] was 4.99 µM. It also gave a GI50 [26] of 2.3 µM, a GI50 [27] of 1.97 µM and an LC50 [28, 34] of 0.000676 mol/L. For the same molecule, the “Log10 GI50 (concentration in mol/L causing 50% growth inhibition)” value [28] was −5.52 mol/L, the “Log10 TGI (concentration in mol/L causing total growth inhibition)” value [28] was −4.85 mol/L and the GI50 [29] was 1.27 µM. For the same molecule, the CC50 [30, 34] was 0.0001 mol/L, the “Log10 GI50 (concentration in mol/L causing 50% growth inhibition)” value [30] was −5.69 mol/L and the “Log10 TGI (concentration in mol/L causing total growth inhibition (0% growth))” value [30] was −5.03 mol/L. For the same molecule, the GI50 [31] was 3.97 µM, the GI50 [32] was 3.2 µM and the GI50 [33] was 2.5 µM.

Source: patent publication US9604933B2, “Pyrazolochalcones as potential anticancer agents” (COUNCIL OF SCIENTIFIC AND INDUSTRIAL RESEARCH, priority 2013, dated 2017)
